In publication PMC12598559, “Absorption characteristics and in vivo behavior of astaxanthin isomers: insights from the administration of highly purified (all-E)-, (9Z)-, and (13Z)-astaxanthin in male mice” (RSC Advances, 2025):
Where two headings read alike, the source gives them in different places. Marks after values point to notes of the source that are not given here.

Legend:
[1] = mouse, iv; for AUC0–∞ / C max: in vivo, 10 mg/kg
Protocol: (§1) All animal experiments were performed in the I Tech Lab. Co., Ltd (Gifu, Japan). The study protocol was approved by the Institutional Animal Care and Use Committee of the company (approval numbers: ITL-25-MO-385 for the oral administration test and ITL-25-MV-386 for the intravenous injection test). Slc:ICR (ICR) male mice aged 7–8 weeks, supplied by Japan SLC Inc. (Shizuoka, Japan), were used in this study. The body weight of the mice at the beginning of the experiments ranged from 42.8 to 52.3 g. The mice were maintained under stable laboratory conditions (temperature: 18–28 °C; humidity: 30–80%; 12 h light/dark cycle) and provided with drinking water and a standard laboratory diet (MF; Oriental Yeast Co., Ltd, Tokyo, Japan) throughout the acclimation and testing periods. After an 11-day acclimation period, single oral administration and intravenous injection tests were conducted. For the oral administration test, 15 mice were randomly assigned to four groups: control (placebo; soybean oil administered), (all-E)-astaxanthin administered (n = 4), (9Z)-astaxanthin administered (n = 4), and (13Z)-astaxanthin administered (n = 4). Each astaxanthin isomer was administered to mice at a dose of 100 mg per kg body weight. […] Blood samples were collected before and 3, 6, 9, 12, and 24 h after the administration of the test diets. Fecal samples were collected 6–24 h after administering astaxanthin. In the intravenous injection test, 15 mice were randomly assigned to four groups: control (placebo; solvent intravenously injected), (all-E)-astaxanthin intravenously injected (n = 4), (9Z)-astaxanthin intravenously injected (n = 4), and (13Z)-astaxanthin intravenously injected (n = 4). Each astaxanthin isomer was intravenously injected into mice at a dose of 10 mg per kg body weight.[24] Blood samples were collected before and 1, 3, 6, 9, and 12 h after injecting the test samples. After these tests, the mice were sacrificed by exsanguination under anesthesia (ketamine hydrochloride and xylazine hydrochloride), and the liver was collected. Plasma samples were prepared from heparin-treated blood by centrifugation. The collected plasma, liver, and fecal samples were immediately stored at −80 °C under dark condition until just before astaxanthin extraction.
(§2) Astaxanthin isomers in the plasma, liver, and fecal samples were extracted according to previous reports.[14,15] In brief, astaxanthin isomers in plasma were extracted using hexane containing 0.01% BHT. An equal volume of methanol was added to each plasma sample to precipitate the proteins prior to hexane extraction. The extraction was performed three times using a vortex mixer for 30 s. After separating the hexane and aqueous layers by centrifugation, the hexane layer was carefully collected and removed using an evaporator. The obtained solid was dissolved in a mixture of hexane and ethyl acetate (9 : 1), filtered through a 0.22 μm PTFE membrane filter, and analyzed using HPLC. Astaxanthin isomers in liver and fecal samples were extracted using acetone containing 0.01% BHT. The samples were ultrasonicated at 80 W and 38 kHz for 30 min in ice water (∼5 °C) to facilitate extraction. The extraction residue was separated from the extraction liquid using a 0.22 μm PTFE membrane filter. The filtrate containing astaxanthin isomers was concentrated to dryness using an evaporator. Finally, the residue was dissolved in a mixture of hexane and ethyl acetate (9 : 1), filtered through a 0.22 μm PTFE membrane filter, and analyzed using HPLC. To minimize the isomerization and degradation of astaxanthin during the extraction process, heat and light exposure were carefully controlled.

[2] = male, ICR, mouse; for F NCA (absolute oral bioavailability) / AUC0–∞ / C max / T max: in vivo, 100 mg/kg; for AUC0–∞ / C max / T max / in vivo isomerization in plasma: po
Protocol: as §1, §2

Compound | AUC0–∞ ([1]; male, ICR) | C max ([1]; male, ICR) | in vivo isomerization in plasma [1] | F NCA (absolute oral bioavailability) [2] | AUC0–∞ [2] | C max [2] | T max [2] | in vivo isomerization in plasma [2] | in vivo isomerization in plasma ([1]; male, ICR)
CC(C=CC=C(C)C=CC1=C(C)C(=O)C(O)CC1(C)C)=CC=CC=C(C)C=CC=C(C)C=CC1=C(C)C(=O)C(O)CC1(C)C (stereo not drawn) [(9Z)-Astaxanthin, (9Z)-astaxanthin] | 19.40 ± 3.30 µg·h/mL | 2.03 ± 0.16 µg/mL | markedly limited isomerization | 0.04 | 4.33 ± 2.07 µg·h/mL | 1.01 ± 0.51 µg/mL | 4 h | isomerized into a variety of Z-isomers, including the all-E-, 13Z-, and 15Z-isomers, and two unidentified Z-isomers | –
CC(C=CC=C(C)C=CC1=C(C)C(=O)C(O)CC1(C)C)=CC=CC=C(C)C=CC=C(C)C=CC1=C(C)C(=O)C(O)CC1(C)C (stereo not drawn) [(13Z)-Astaxanthin, (13Z)-astaxanthin] | 127.10 ± 32.40 µg·h/mL | 5.46 ± 1.34 µg/mL | the isomer composition remained relatively stable | 0.18 | 82.20 ± 57.40 µg·h/mL | 7.70 ± 5.09 µg/mL | 6 h | a minor portion of the 13Z-isomer isomerized to the all-E-isomer | –
CC(C=CC=C(C)C=CC1=C(C)C(=O)C(O)CC1(C)C)=CC=CC=C(C)C=CC=C(C)C=CC1=C(C)C(=O)C(O)CC1(C)C (stereo not drawn) [(all-E)-Astaxanthin, (all-E)-astaxanthin] | 0.31 ± 0.20 µg·h/mL | 0.10 ± 0.07 µg/mL | – | 0.12 | 1.46 ± 1.35 µg·h/mL | 0.01 ± 0.01 µg/mL | 3 (9) ^d h | a small portion of (all-E)-astaxanthin was converted to the 13Z- and 15Z-isomers | the proportion of the 13Z-isomer gradually increased over time
